Source: patent publication US20100247931A1, “TREATING SURFACES TO ENHANCE BIO-COMPATIBILITY” (priority 2001, published 2010)
Several values for one entry are separate records, joined by “and”; a condition that tells them apart may be missing. Identical values can stand only once. Counter-ions that a name gives are not always drawn.

Columns and labels:
Assay type in all cases: physicochemical
[1] = Eosin Y coupling to amine groups of TMSPEA functionalised surface and release (absorbance at 517 nm)
Description: Once rinsing had been completed, the sample was placed in a 50 ml sample tube and 4 mls of 0.1 M NaOH was pipetted into it, the sample tube was placed on the Spiramix and it was rolled for—5 minutes. 20 mls of deionised water was then pipetted into the solution and the absorbance of the resulting solution was recorded at 517 nm using a spectrophotometer. The absorbance value was then converted into an amount of eosin Y attached to the sample by using a calibration graph of absorbance readings for known amounts of eosin Y sodium salt. The absorbance reading for the release solution was 0.83 at 517 nm corresponding to 205 μg of eosinY.
All six samples were placed in sample tubes (100*16 mm R. B. tubes clarified polypropylene, Jencons PLC) and rolled on the Spiramix (Denley Spiramix 5) in approximately 4-6 mls of a 0.4% aqueous solution of eosin Y sodium salt (Sigma Aldrich chemical co) for approximately 1 hour.
Once rinsing had been completed, two samples from the ethanol rinsed and unrinse, d sets were placed in 50 ml sample tubes and 4 mls of 0.1 M NaOH was pipetted into each. The sample tubes were placed on the Spiramix and rolled for—5 minutes. 20 mls of deionised water was then pipetted into each sample and the absorbance of the resulting solution was recorded at 517 nm using a Jenway 6305 W/V is spectrophotometer. The values recorded were then converted into amounts of eosin Y attached to the samples by using a calibration graph of absorbance readings for known amounts of eosin Y sodium salt.
After drying for 2 hours at 50° C. the sample was stained with Eosin Y solution, visually examined and then released as detailed in the Eosin Y Coupling section of Example 6.

[2] = Mitoxantrone coupling and release from coated device (absorbance of release solution at 660 nm)
[3] = as above; remark: listed apart in the source
Description: A 0.01% solution of mitoxantrone (Sigma Aldrich Chemical Co) was made up in deionised water. The samples are each immersed in 4 mls of the solution and left rolling on a Spiramix (Denley Spiramix 5) for—17 hours (Samples placed in 100*16 mm R. B. tube clarified polypropylene supplied by Jencons PLC.). After this time they were rinsed in deionised water until there was no evidence of the mitoxantrone being removed in the water. 4 mls of phosphate buffered saline solution (PBS) was then pipetted into a clean sample tube and the sample added. The samples were left in this solution for 1 hour on the Spiramix, after which absorbances were recorded by spectrophotometer at 660 nm. The solutions were then transferred back into the appropriate sample tube and 5 drops of 1M hydrochloric acid added from a dropping pipette. The samples were left for 10 minutes rolling on the Spiramix, after which an absorbance reading was recorded. Further readings were obtained after 1 hour or more to give a value for complete release of mitoxantrone. The absorbances recorded for the release solutions at 660 nm gave an indication of the amount of mitoxantrone attached to the carboxymethylcellulose coating on each sample. By use of a calibration curve plotting known concentrations of mitoxantrone solutions against the absorbance of the solution at 660 nm, the mitoxantrone concentration of the release solution was determined and from this the amount of mitoxantrone attached to each device. An absorbance of 0.09 at 660 nm was obtained for the 1 hour release in phosphate buffered saline solution, and an absorbance of 0.17 for the complete release of Mitoxantrone. This equates to approximately 31 micrograms of mitoxantrone attached to the stent.

[4] = Colchicine release from polymer coating into phosphate buffered saline (UV/Vis absorbance at 350 nm)
Source text: The stent was placed in a tube containing 4 mls of Phosphate Buffered Saline solution (prepared from tablets supplied by Sigma-Aldrich Chemical Co by dissolving 1 tablet in 200 mls of deionised water) and agitated by rolling. The saline solution was sampled at intervals and its colchicine content determined by monitoring its absorbance at 350 nm using UV/Vis Spectrometry. A calibration plot for various concentrations of Colchicine (4 to 99 micrograms) in solution against the solution's absorbance at 350 nm was constructed to convert sample's release absorbance into drug release values in micrograms per stent. The graph of Colchicine released against release time is plotted in FIG. 3.
1. Stainless steel strips approx 6-8 mm in width were cleaned in IPA with ultrasound for 15 mins, followed by drying at 130° C. for 30 mins 2. The plate was functionalised as in Example 2. 3. The amino group on the functionalised steel was then reacted with the ispcyano group of 3-(triethoxysilyl)isocyanate to form a urea linkage, yielding triethoxysilyl groups on the surface. This was performed by adding the stainless steel plate to a solution of 3-(triethoxysilyl) isocyanate (9 ml) in anhydrous toluene (219 ml). […] The colchicine was released by placing the strips in 4 mls of phosphate buffered saline (PBS) solution, placing on a spiromix and measuring the absorbance at 350 nm over a period of 100 hours 15. […]

[5] = Example 2: stent coupled with poly(acrylic acid) partial sodium salt, Mw 2000
[6] = Example 9: heat exchange tubes coupled with polyacrylic acid sodium salt, Mw ca. 30,000

For `O=C1OC2(c3ccccc31)c1cc(Br)c(O)c(Br)c1Oc1c2cc(Br)c(O)c1Br` [eosin Y, eosin Y sodium salt], the “Eosin Y attached to the sample” value ([1]; Example 6: TMSPEA functionalised tube (toluene, 30 minutes), calibration graph) was 205 µg, the “Absorbance of release solution at 517 nm” value ([1]; Example 6: TMSPEA functionalised tube (toluene, 30 minutes), released in 0.1 M NaOH) was 0.83 and the “Absorbance of release solution at 517 nm” value ([1]; Example 15: tube functionalised with TMSPEA in tetrahydrofuran instead of toluene) was 0.19.

For `O=C1c2c(O)ccc(O)c2C(=O)c2c(NCCNCCO)ccc(NCCNCCO)c21` [mitoxantrone], the “Absorbance at 660 nm, released 10 minutes in PBS with 5 drops 1 M HCl” value [2, 5] was 0.037, the “Mitoxantrone attached to the stent” value [2, 5] was 7 micrograms and the “Mitoxantrone attached to the heparin coated devices (complete release values)” value ([2]; Example 3: heparin coupled stainless steel heat exchange tubes) was 31 micrograms and 36 micrograms. For the same compound, the “Mitoxantrone attachment of released stent” value ([2]; Example 7: commercially available stent, heparin/EDC Reaction Solution 1 of Example 6) was 9 micrograms, the “Absorbance at 660 nm, complete release of mitoxantrone” value [2, 6] was 0.33 and the “Mitoxantrone corresponding to complete release absorbance” value [2, 6] was 60 micrograms. The “Absorbance at 660 nm, complete release of mitoxantrone” value ([3]; Example 1: CMC coupled stent, PBS + 1M HCl) was 0.17, the “Mitoxantrone attached to the stent” value ([3]; Example 1: CMC coupled stent, from calibration curve) was “approximately 31 micrograms” and the “Absorbance at 660 nm, 1 hour release in phosphate buffered saline solution” value ([3]; Example 1: stainless steel stent, TMSPEA functionalised, carboxymethylcellulose coupled) was 0.09.

In the case of `COc1cc2c(c(OC)c1OC)-c1ccc(OC)c(=O)cc1[C@@H](NC(C)=O)CC2` [colchicine], the “Release of drug into phosphate buffered saline solution” value ([4]; Coating of poly(vinyl butyral-co-vinyl alcohol-co-vinyl acetate) and colchicine without poly(ethylene glycol)) is reported as “does not release the drug into phosphate buffered saline solution” and the “Total amount of drug released after sonication in 2-propanol” value ([4]; Example 14: strip coated with poly(vinyl butyral-co-vinyl alcohol-co-vinyl acetate) + poly(ethylene glycol) + colchicine, after 100 hours in PBS) is reported as 320 u. g.
